From patent US20100291592A1, “NOVEL MARKER FOR SENSITIVITY AGAINST SULFONAMIDE COMPOUND” (priority 2006, published 2010)

How the values were obtained:
EGFR1 [1] = test: EGFR1 expression and phosphorylation level in PC9 subcutaneous transplant model (western blotting); assay type: in vivo, nude mouse; conditions: for Phosphorylation level of EGFR1 (% of control) / EGFR1 expression level (% of control): PC9 tumor in nude mouse; for Phosphorylation level of EGFR1 (% of control): anti-EGFR pY1068 western blotting
Protocol: PC9 was cultured in RPMI1640 (containing 10% FBS) in a 5% carbon dioxide incubator to about 80% confluence. The cells were collected with trypsin-EDTA according to a routine procedure and 5×10^7 cells/mL suspension was prepared with a phosphate buffer. Then, 0.1 mL each of the resulting suspension was subcutaneously transplanted to the side of a nude mouse. Eight days after the transplantation, E7820 was orally administered for 50 mg/kg or 200 mg/kg twice a day for a week. One week after the start of sadministration, tumors were removed to prepare tumor cell lysates with various protease inhibitors and a cell lysis solution containing 10% glycerol and 1% Triton X-100 in ice. For each tumor cell lysate, an equal amount of protein was fractionated by SDS-PAGE and transferred onto a nitrocellulose membrane (Hybond ECL, Amersham Biosciences). Then, western blotting was performed by using an anti-EGFR1 antibody (Santa Cruz Biotechnology) or an anti-EGFR pY1068 antibody (anti-phosphorylated-EGFR1 antibody) (Cell Signaling) and horse radish peroxidase-labeled anti-mouse IgG antibody (secondary antibody) (Cell Signaling) according to a routine procedure.
Detection and quantification of each band were carried out as follows. First, each band was forced to chemically develop a color with Chemiluminescent Substrate (PIERCE), which was then captured as a digital image with Image Master VDS-CL (Amersham Pharmacia Biotech, Tokyo). The digital images were saved as TIF files and each band was numerically converted with Image Master total Lab (version 1.00, Amersham Pharmacia Biotech, Tokyo).

EGFR1 [2] = test: EGFR1 expression level in cultured PC9 (flow cytometry); assay type: cell-based, human; conditions: for EGFR1 expression level (% of control) PC9: two days of culture
Protocol: PC9 or A549 was suspended in RPMI1640 (containing 10% FBS) to 1×10^5 cells/ml. Then, 1 ml each of these suspensions was placed into each well of a 6-well plate and cultured in a 5% carbon dioxide incubator at 37° C. On the following day, 1 ml each of E7820 culture dilutions at respective concentrations (0-20 μM) was added to the cells in each well for further culture. After two days of culture, the cells were collected with trypsin-EDTA according to a routine procedure, which were suspended in PBS containing 0.5% BSA. Subsequently, an anti-EGFR1 antibody (BD Biosciences) was added to these suspensions and incubated at 4° C. for 30 minutes. Centrifugation and washing with PBS were carried out according to routine procedures to remove an excessive amount of the antibody. Then, an RPE-labeled anti-mouse IgG antibody was added to these suspensions and incubated at 4° C. for 30 minutes. Centrifugation and washing with PBS were carried out according to routine procedures to remove an excessive amount of the antibody. Finally, the EGFR1 expression level in PC9 and A549 were determined with FACSCalibur (Japan Becton, Dickinson and Company).

[3] = system: cancer cell line resistant to E7070; conditions: WO2006/030941 and WO2006/030947; cited from earlier work
[4] = PC9 transplanted tumors, dose-dependent, western blotting

In the case of `Cc1ccc(NS(=O)(=O)c2cccc(C#N)c2)c2[nH]cc(C#N)c12` [E7820, N-(3-cyano-4-methyl-1H-indole-7-yl)-3-cyanobenzenesulfonamide], the “Effect on EGFR1 expression level (in words)” value (EGFR1 [1]; [4]) is reported as “decreased the EGFR1 expression level”, the “Effect on phosphorylation of EGFR1 (in words)” value (EGFR1 [1]; [4]) is reported as “inhibited phosphorylation of EGFR1” and the “Phosphorylation level of EGFR1 (% of control)” value (EGFR1 [1]; 50 mg/kg orally twice a day for a week) is reported as 59 % of control. For the same compound, the “EGFR1 expression level (% of control)” value (EGFR1 [1]; 50 mg/kg orally twice a day for a week, western blotting) was 63 % of control, the “Phosphorylation level of EGFR1 (% of control)” value (EGFR1 [1]; 200 mg/kg orally twice a day for a week) was 51 % of control and the “EGFR1 expression level (% of control)” value (EGFR1 [1]; 200 mg/kg orally twice a day for a week, western blotting) was 40 % of control. For the same compound, the “EGFR1 expression level (% of control) PC9” value (EGFR1 [2]; PC9, E7820 0.01 μM) was 95 % of control, the “EGFR1 expression level (% of control) PC9” value (EGFR1 [2]; PC9, E7820 0.03 μM) was 91 % of control and the “EGFR1 expression level (% of control) PC9” value (EGFR1 [2]; PC9, E7820 0.1 μM) was 80 % of control. The “EGFR1 expression level (% of control) PC9” value (EGFR1 [2]; PC9, E7820 0.3 μM) was 65 % of control, the “EGFR1 expression level (% of control) PC9” value (EGFR1 [2]; PC9, E7820 1 μM) was 49 % of control and the “EGFR1 expression level (% of control) PC9” value (EGFR1 [2]; PC9, E7820 3 μM) was 44 % of control. For the same compound, the “EGFR1 expression level (% of control) PC9” value (EGFR1 [2]; PC9, E7820 10 μM) was 37 % of control, the “Effect on EGFR1 expression level (in words)” value (EGFR1 [2]; cultured PC9, dose-dependent) was “greatly decreased the EGFR1 expression level” and the “Cross-resistance of E7070-resistant cancer cell line (antiproliferative activity)” value [3] was “cross-resistance”.
